Patent US6174884A, “1,5-dihydro-pyrazolo[34-D]-pyrimidinone derivatives” (Bayer Aktiengesellschaft, priority 1997, dated 2001)

Assays:
[1] = biological target: PDE II; assay: Phosphodiesterase inhibition in vitro, PDE II (cGMP-stimulatable); type: biochemical, porcine or bovine; settings: 3H-cAMP substrate, 10^-6 mol/l cGMP added
Source text: (§1) The c-GMP-stimulatable PDE II, the c-GMP-inhibitable PDE III and the cAMP-specific PDE IV were isolated either from porcine or bovine heart myocard. The Ca^2+ -calmodulin-stimulatable PDE I was isolated from porcine aorta, porcine brain or, preferably, bovine aorta. The c-GMP-specific PDE V was obtained from porcine small intestine, porcine aorta, human platelets and, preferably, bovine aorta. They were purified by anion exchange chromatography on MonoQ® Pharmacia following essentially the method of M. Hoey and Miles D. Houslay, Biochemical Pharmacology, Vol. 40, 193-202 (1990) and C. Lugman et al. Biochemical Pharmacology Vol. 35 1743-1751 (1986).
(§2) The enzyme activity is determined in a test batch of 100 μl in 20 mM Tris/HCl buffer pH 7.5 which comprises 5 mM MgCl2, 0.1 mg/ml bovine serum albumin and either 800 Bq ^3 HcAMP or ^3 HcGMP. The end concentration of the corresponding nucleotide is 10^-6 mol/l. The reaction is started by adding the enzyme, and the quantity of enzyme is such that approx. 50% of the substrate are converted during the incubation time of 30 minutes. To test the cGMP-stimulatable PDE II, ^3 HcAMP is used as substrate, 10^-6 mol/l unlabelled cGMP are added to the batch. To test the Ca-calmodulin-dependent PDE I, 1 μM CaCl2 and 0.1 μM calmodulin are also added to the reaction batch. The reaction is stopped by adding 100 μl of acetonitrile which contains 1 mM cAMP and 1 mM AMP. 100 μl of the reaction batch are separated by HPLC and the cleavage products are quantified on-line using a flow scintillation counter. The substance concentration at which the reaction rate is reduced by 50% is measured. Also used for testing were the "Phosphodiesterase [^3 H] cAMP-SPA enzyme assay" and the "Phosphodiesterase [^3 H]cGMP-SPA enzyme assay" by Amersham Life Science. The test was performed following the manufacturer's protocol. To determine the PDE2 activity, the [^3 H] cAMP SPA assay was used, 10^-6 M cGMP being added to the reaction batch for activating the enzyme. To measure PDE1, 10^-7 M calmodulin and 1 μM CaCl2 were added to the reaction batch. PDE5 was measured using the [^3 H] cGMP SPA assay.

[2] = biological target: PDE I; assay: Phosphodiesterase inhibition in vitro, PDE I (Ca-calmodulin-stimulatable); type: biochemical, porcine aorta, porcine brain or, preferably, bovine aorta; settings: Ca/calmodulin added, substrate 10^-6 mol/l
Source text: as §1, §2

[3] = biological target: PDE V; assay: Phosphodiesterase inhibition in vitro, PDE V (cGMP-specific); type: biochemical; settings: 3H-cGMP substrate
Source text: as §1, §2

| SMILES | IC50 [1] | IC50 [2] | IC50 [3] |
| --- | --- | --- | --- |
| CC(CCCc1ccccc1)n1ncc2c(=O)[nH]c(Cc3ccc(Cl)c(Cl)c3)nc21 (stereo not drawn) [Example 10] | 500 nM | 300 nM | 50 nM |
| Cc1nn(C(CCCc2ccccc2)C(C)O)c2nc(Cc3ccccc3)[nH]c(=O)c12 (single isomer, unassigned) [Example 33, 6-Benzyl-1-[1-(1-hydroxy-ethyl)-4-phenyl-butyl]-3-methyl-1,5-dihydro-pyrazolo[3,4-d]pyrimidin-4-one] | 500 nM | 500 nM | 800 nM |

Now those with a lower IC50 [1], led by results:

| IC50 [1] | IC50 [2] | IC50 [3] | SMILES |
| --- | --- | --- | --- |
| 300 nM | 500 nM | 300 nM | Cc1nn(C(CCCc2ccccc2)C(C)O)c2nc(Cc3ccccc3)[nH]c(=O)c12 (single isomer, unassigned) [Example 32, 6-Benzyl-1-[1-(1-hydroxy-ethyl)-4-phenyl-butyl]-3-methyl-1,5-dihydro-pyrazolo[3,4-d]pyrimidin-4-one] |
| 300 nM | 300 nM | 300 nM | COc1ccc(Cc2nc3c(cnn3C(C)CCCc3ccccc3)c(=O)[nH]2)cc1OC (stereo not drawn) [Example 9] |
| 100 nM | > 10000 nM | 50 nM | CCc1nn(C(C)CCCc2ccccc2)c2nc(Cc3ccc(Br)cc3)[nH]c(=O)c12 (stereo not drawn) [Example 11, 6-(4-Bromo-benzyl)-1-(1-methyl-4-phenyl-butyl)-3-ethyl-1,5-dihydro-pyrazole[3,4-d]pyrimidin-4-one] |
